As a reminder, the GI50 is the concentration giving 50% growth inhibition. Read a high GI50 as less potent growth inhibition.

Results on 1 compound are retold here after patent publication US11420977B2, “Late SV40 (LSF) inhibitors” (Trustees of Boston University, priority 2018, dated 2022).

Common to all, as to format: cell-based
One experiment relates to SNU-423 cells. Kind of experiment: MTS cell proliferation assay, SNU-423. To be noted: Homo sapiens, 120 hrs incubation. Here is the method:
(§1) Cell lines and culture conditions: Human colon cancer cells Caco-2, HT29 and HCT15, human pancreatic cancer cells BxPC3, CFPAC-1, and CAPAN-2, liver cancer cells SNU423 and kidney cells HEK293, were obtained from American Type Culture Collection (Rockville, USA). HeLa, DLD1, U937, THP-1, and NIH3T3 cells were obtained from ATCC. Huh7 cells were obtained from (Japanese Cancer Resources Bank). HeLa cells, Huh7, DLD1 and NIH-3T3 cells were cultured in DMEM (Dulbecco's modification of Eagle's Medium; Corning) supplemented with 10% Fetal Bovine Serum (FBS; Invitrogen) and 10% Fetal Calf Serum (FCS; Atlanta Biologicals) respectively. U937, BxPC3, HCT15, SNU423 and THP-1 cells were grown in RPMI-1640 (Roswell Park Memorial Institute; Corning) supplemented with 10% Fetal Bovine Serum (FBS; Invitrogen). CFPAC-1 cells were cultured in Iscove's Modified Dulbecco's Medium (ATCC) supplemented with 10% FBS. CAPAN-2 and HT29 cells were cultured in McCoy's 5a medium supplemented with 10% FBS. Caco2 and HEK293 cells were grown in Eagle's Minimum Essential Medium (ATCC) with final 20% FBS concentration. All cells were maintained at 37° C. in 5% CO2 at constant 70% humidity.
(§2) MTS cell proliferation assay: Cells were detached from the plates using trypsin (0.25% for 3 mins, ATCC) and counted using a hemocytometer and were plated at 3000-1500 cells per well, in a 96-well format. The cells were seeded in the inner wells of 96 well plates, and media was added to the outer wells (blank). For NIH-3T3, 1500 cells were seeded in the inner wells of 96-well plates, and after 20 hours cells were treated with compound or DMSO (vehicle control) at appropriate concentrations (DMSO at final concentration of 1%). For other adherent cells 3000 HeLa, BxPC3, CFPAC-1, CAPAN-2, HEK293, HCT15, HT29, CaCo2, DLD1, Huh7 or SNU423 cells were seeded in in each well approximately 20 hrs prior to the treatment. For U937 and THP-1 suspension cells, 2500 cells were added to the wells of a 96-well plate on the day of treatment. After a 72-hour (or 120 hrs for BxPC3, CAPAN-2, SNU423) incubation with compound or vehicle, cell growth was assessed via the Promega CellTiter 96® AQueous One Solution Cell Proliferation Assay, a colorimetric method to determine the number of viable cells. 20 μL of the CellTiter 96® AQueous One Solution Reagent was added directly into cultured wells and incubated for approximately one hour, after which the absorbance at 490 nm was read with a 96-well plate reader (Opys MR Microplate Reader). GI50 values were determined from plots of the percentage of compound-treated cell growth to vehicle cell growth vs. compound concentration (GraphPad Prism; non-linear regression, log inhibitor verse normalized response with variable slope).

Another experiment deals with HEK-293 cells. Kind of experiment: MTS cell proliferation assay, HEK-293. The conditions noted are these: Homo sapiens, HEK293, 72-hour incubation. Here is the method: (§3) Cell lines and culture conditions: Human colon cancer cells Caco-2, HT29 and HCT15, human pancreatic cancer cells BxPC3, CFPAC-1, and CAPAN-2, liver cancer cells SNU423 and kidney cells HEK293, were obtained from American Type Culture Collection (Rockville, USA). HeLa, DLD1, U937, THP-1, and NIH3T3 cells were obtained from ATCC. Huh7 cells were obtained from (Japanese Cancer Resources Bank). HeLa cells, Huh7, DLD1 and NIH-3T3 cells were cultured in DMEM (Dulbecco's modification of Eagle's Medium; Corning) supplemented with 10% Fetal Bovine Serum (FBS; Invitrogen) and 10% Fetal Calf Serum (FCS; Atlanta Biologicals) respectively. […]
(§4) MTS cell proliferation assay: Cells were detached from the plates using trypsin (0.25% for 3 mins, ATCC) and counted using a hemocytometer and were plated at 3000-1500 cells per well, in a 96-well format. […] After a 72-hour (or 120 hrs for BxPC3, CAPAN-2, SNU423) incubation with compound or vehicle, cell growth was assessed via the Promega CellTiter 96® AQueous One Solution Cell Proliferation Assay, a colorimetric method to determine the number of viable cells. 20 μL of the CellTiter 96® AQueous One Solution Reagent was added directly into cultured wells and incubated for approximately one hour, after which the absorbance at 490 nm was read with a 96-well plate reader (Opys MR Microplate Reader). […]

The subject of a further experiment is NIH 3T3 cells. Put plainly: MTS cell proliferation assay, NIH 3T3. To be noted: Mus musculus, NIH3T3, 72-hour incubation. As for the experimental part: as §1, with “All cells were maintained at 37° C. in 5% CO2 at constant 70% humidity.” left out
(§5) MTS cell proliferation assay: Cells were detached from the plates using trypsin (0.25% for 3 mins, ATCC) and counted using a hemocytometer and were plated at 3000-1500 cells per well, in a 96-well format. […] After a 72-hour (or 120 hrs for BxPC3, CAPAN-2, SNU423) incubation with compound or vehicle, cell growth was assessed via the Promega CellTiter 96® AQueous One Solution Cell Proliferation Assay, a colorimetric method to determine the number of viable cells. 20 μL of the CellTiter 96® AQueous One Solution Reagent was added directly into cultured wells and incubated for approximately one hour, after which the absorbance at 490 nm was read with a 96-well plate reader (Opys MR Microplate Reader). GI50 values were determined from plots of the percentage of compound-treated cell growth to vehicle cell growth vs. compound concentration (GraphPad Prism; non-linear regression, log inhibitor verse normalized response with variable slope).

A further experiment relates to BxPC-3 cells. Kind of experiment: MTS cell proliferation assay, BxPC-3. To be noted: Homo sapiens, 120 hrs incubation. As for the experimental part: as §3, §4
On the technique in general: Tetrazolium assays rely on reduction of a dye to a coloured formazan, in cell work by metabolically active cells.

For another experiment, the system named is CAPAN-2 cells. Kind of experiment: MTS cell proliferation assay, CAPAN-2. The conditions noted are these: Homo sapiens, 120 hrs incubation. Here is the method:
as §3, §4

Another experiment deals with CFPAC-1 cells. Kind of experiment: MTS cell proliferation assay, CFPAC-1. To be noted: Homo sapiens, 72-hour incubation. As for the experimental part:
as §3, §4

In the next experiment the test system is CaCo-2 cells. Put plainly: MTS cell proliferation assay, CaCo-2. To be noted: Homo sapiens, 72-hour incubation. As for the experimental part: as §3, §4
The subject of a further experiment is HCT-15 cells. Kind of experiment: MTS cell proliferation assay, HCT-15. The conditions noted are these: Homo sapiens, 72-hour incubation. As for the experimental part: as §3, §4
A further experiment has as its system HT-29 cells. Kind of experiment: MTS cell proliferation assay, HT-29. To be noted: Homo sapiens, 72-hour incubation. Here is the method:
as §3, §4

Another experiment relates to U937 cells. Put plainly: MTS cell proliferation assay, U937. To be noted: Homo sapiens, U-937, 72-hour incubation. Here is the method:
as §3, §4

In another experiment the test system is THP-1 cells. Kind of experiment: MTS cell proliferation assay, THP-1. The conditions noted are these: Homo sapiens, 72-hour incubation. Here is the method: as §3, §4
In another experiment the test system is HuH7 cells. Put plainly: MTS cell proliferation assay, HuH7. The conditions noted are these: Homo sapiens, Huh-7, 72-hour incubation. Here is the method: as §1, §2
For the next experiment, the system named is HeLa cells. Kind of experiment: MTS cell proliferation assay, HeLa. To be noted: Homo sapiens, 72-hour incubation. Here is the method: as §1, with “All cells were maintained at 37° C. in 5% CO2 at constant 70% humidity.” left out
as §5

The next experiment concerns RPE-hTERT Flp-In cells. Put plainly: FQI34/FQI1 comparison, mitotic defects in RPE-hTERT Flp-In cells. As for the experimental part: RPE-hTERT Flp-In cells were incubated in serum-free DMEM:F12 media for 24 hours to synchronize the cells in G0/G1. Cells were stimulated to reenter the cell cycle with DMEM:F12 media containing 10% Fetal Bovine Serum. After 24 hours, the cells were treated with DMSO (vehicle), FQI1 (2.5 μM or 5 μM), or FQI34 (250 nM or 500 nM) for one hour. The cells were washed twice with 1×Phosphate-buffered Saline and fixed with PHEM (3.7% formaldehyde in 100 mM PIPES at pH 6.8, 10 mM EGTA, 1 mM magnesium chloride, and 0.2% Triton X-100) for 10 minutes at room temperature. The fixed cells were stained for α-tubulin using a mouse anti-α-tubulin antibody (Fisher #62204). Secondary antibodies were: DMSO/FQI1 samples—goat anti-mouse IgG conjugated to Alexa 546 (Thermo Fisher #A11003); FQI34 samples—goat anti-mouse IgG conjugated to Texas Red (Fisher #T-862). DNA was stained with Hoechst 33342. Cells were imaged using a Nikon NiE using the 40× objective and images were captured using a DS-Qi1 Mc 12 bit camera. Scale bars and merged images were generated using Fiji software.

On to `CCOc1cc(N(C)C)ccc1C1CC(=O)Nc2cc3c(cc21)OCO3` (stereo not drawn) [FQI-34], for which the concentration for 50% growth inhibition (GI50) was 0.384 µM in the experiment on SNU-423 cells; 0.219 µM with HEK-293 cells; 0.73 µM in the experiment with NIH 3T3 cells; 0.27 µM in the experiment on BxPC-3 cells; 0.239 µM in the experiment with CAPAN-2 cells; 0.676 µM with CFPAC-1 cells. Moreover, the GI50 with CaCo-2 cells worked out at 0.501 µM; in the experiment on HCT-15 cells, 0.224 µM; in the experiment with HT-29 cells, 0.316 µM; in the experiment on U937 cells it was 0.25 µM; in the experiment with THP-1 cells, 4.8 µM; in the experiment on HuH7 cells it was 0.141 µM. The GI50 in the experiment with HeLa cells amounted to 0.462 µM. Further, in the experiment with RPE-hTERT Flp-In cells (FQI34 250 nM or 500 nM vs FQI1 2.5 μM or 5 μM, one hour), the “potency for causing mitotic defects relative to FQI1” value is “at least 10 fold”. Moreover, the “chromosome and spindle phenotype (DNA and α-tubulin immunofluorescence)” value in the experiment with RPE-hTERT Flp-In cells (one hour treatment, FIG. 33) was “condensed, but nonaligned chromosomes and disrupted spindles”.
